What all share (type): cell-based
The target in one assay is T1, human TLR8 (Homo sapiens, UniProt Q9NR97).
T1 construct: host or cells: HEK-Blue cells (HEK293-derived reporter line)
T1 sequence (Q9NR97 27-1041): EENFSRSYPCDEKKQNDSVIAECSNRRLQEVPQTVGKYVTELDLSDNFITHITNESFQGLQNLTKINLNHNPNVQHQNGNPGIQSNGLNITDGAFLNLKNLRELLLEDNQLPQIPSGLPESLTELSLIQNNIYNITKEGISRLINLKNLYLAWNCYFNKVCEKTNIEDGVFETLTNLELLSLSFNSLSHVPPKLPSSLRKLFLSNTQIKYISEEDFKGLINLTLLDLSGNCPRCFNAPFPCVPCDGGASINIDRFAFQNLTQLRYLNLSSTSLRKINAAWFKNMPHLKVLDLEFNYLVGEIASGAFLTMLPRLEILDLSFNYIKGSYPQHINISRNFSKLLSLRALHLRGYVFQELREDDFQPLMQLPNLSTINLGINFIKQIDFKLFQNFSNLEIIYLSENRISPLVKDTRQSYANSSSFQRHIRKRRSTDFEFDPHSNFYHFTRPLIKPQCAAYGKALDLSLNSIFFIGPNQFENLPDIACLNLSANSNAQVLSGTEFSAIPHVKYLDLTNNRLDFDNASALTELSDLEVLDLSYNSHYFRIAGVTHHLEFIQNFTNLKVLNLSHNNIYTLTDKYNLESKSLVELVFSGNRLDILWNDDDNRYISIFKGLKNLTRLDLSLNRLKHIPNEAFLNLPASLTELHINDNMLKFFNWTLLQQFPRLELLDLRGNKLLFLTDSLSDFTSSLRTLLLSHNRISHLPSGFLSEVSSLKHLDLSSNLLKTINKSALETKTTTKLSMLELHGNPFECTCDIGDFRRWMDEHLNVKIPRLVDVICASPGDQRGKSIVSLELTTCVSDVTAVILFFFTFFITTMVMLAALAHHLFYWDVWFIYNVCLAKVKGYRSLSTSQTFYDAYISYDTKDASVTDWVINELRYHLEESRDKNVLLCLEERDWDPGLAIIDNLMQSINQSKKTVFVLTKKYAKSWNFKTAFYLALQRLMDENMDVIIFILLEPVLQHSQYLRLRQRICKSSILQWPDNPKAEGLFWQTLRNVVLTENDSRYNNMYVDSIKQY
Briefly: TLR8 inhibition reporter assay (HEK-Blue cells, SEAP reporter, R848 stimulation). The settings on record: HEK-Blue cells overexpressing human TLR8, SEAP reporter, R848 15.9 μM. In outline:
(§1)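 Read-out is SEAP activity in HEK-Blue detection medium after 22 h at 37 °C, converted to percent inhibition against agonist-plus-DMSO and reference-inhibitor controls. Cells saw compound (0.05 nM–50 μM, 30 min, room temperature) before gardiquimod 7.5 μM, R848 15.9 μM or ODN2006 5 nM for TLR7, TLR8 and TLR9, respectively.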
In general terms: Reporter assays use an easily measured gene product as a stand-in for the process of interest.

The next assay has as its target T2, human TLR7 (Homo sapiens, UniProt Q9NYK1).
T2 construct: host or cells: HEK-Blue cells (HEK293-derived reporter line)
T2 sequence (Q9NYK1 27-1049): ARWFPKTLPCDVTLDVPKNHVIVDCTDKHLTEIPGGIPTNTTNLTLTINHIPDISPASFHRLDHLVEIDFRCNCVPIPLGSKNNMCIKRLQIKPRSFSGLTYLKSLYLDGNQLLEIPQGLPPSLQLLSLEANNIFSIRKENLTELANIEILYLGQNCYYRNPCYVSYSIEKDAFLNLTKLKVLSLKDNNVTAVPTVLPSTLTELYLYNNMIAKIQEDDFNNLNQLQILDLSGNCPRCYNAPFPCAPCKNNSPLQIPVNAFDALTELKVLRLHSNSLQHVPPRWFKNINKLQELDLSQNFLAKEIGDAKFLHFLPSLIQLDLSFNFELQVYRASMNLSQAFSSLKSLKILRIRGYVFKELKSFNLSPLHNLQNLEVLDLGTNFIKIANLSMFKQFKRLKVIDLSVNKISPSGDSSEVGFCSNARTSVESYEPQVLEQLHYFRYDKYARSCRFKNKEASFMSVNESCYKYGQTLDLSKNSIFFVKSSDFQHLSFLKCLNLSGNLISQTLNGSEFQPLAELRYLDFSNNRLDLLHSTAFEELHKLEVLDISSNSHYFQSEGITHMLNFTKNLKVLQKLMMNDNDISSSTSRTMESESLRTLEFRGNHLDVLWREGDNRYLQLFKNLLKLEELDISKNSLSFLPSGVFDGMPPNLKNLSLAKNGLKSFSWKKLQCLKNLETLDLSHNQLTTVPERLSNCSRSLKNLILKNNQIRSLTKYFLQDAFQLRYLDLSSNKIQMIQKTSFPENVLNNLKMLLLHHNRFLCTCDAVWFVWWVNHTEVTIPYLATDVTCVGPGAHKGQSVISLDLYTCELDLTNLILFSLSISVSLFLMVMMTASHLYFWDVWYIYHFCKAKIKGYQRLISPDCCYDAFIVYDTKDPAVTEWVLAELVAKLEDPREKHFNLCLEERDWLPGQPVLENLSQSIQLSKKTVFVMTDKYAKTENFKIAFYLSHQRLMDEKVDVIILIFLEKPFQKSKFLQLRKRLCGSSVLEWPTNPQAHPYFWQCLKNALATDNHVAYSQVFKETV
Nature of the assay: TLR7 inhibition reporter assay (HEK-Blue cells, SEAP reporter, gardiquimod stimulation). The settings on record: HEK-Blue cells overexpressing human TLR7, SEAP reporter, gardiquimod 7.5 μM. A digest of the protocol:
as §1

In another assay the target is T3, human TLR9 (Homo sapiens, UniProt Q9NR96).
T3 construct: host or cells: HEK-Blue cells (HEK293-derived reporter line)
T3 sequence (Q9NR96 26-1032): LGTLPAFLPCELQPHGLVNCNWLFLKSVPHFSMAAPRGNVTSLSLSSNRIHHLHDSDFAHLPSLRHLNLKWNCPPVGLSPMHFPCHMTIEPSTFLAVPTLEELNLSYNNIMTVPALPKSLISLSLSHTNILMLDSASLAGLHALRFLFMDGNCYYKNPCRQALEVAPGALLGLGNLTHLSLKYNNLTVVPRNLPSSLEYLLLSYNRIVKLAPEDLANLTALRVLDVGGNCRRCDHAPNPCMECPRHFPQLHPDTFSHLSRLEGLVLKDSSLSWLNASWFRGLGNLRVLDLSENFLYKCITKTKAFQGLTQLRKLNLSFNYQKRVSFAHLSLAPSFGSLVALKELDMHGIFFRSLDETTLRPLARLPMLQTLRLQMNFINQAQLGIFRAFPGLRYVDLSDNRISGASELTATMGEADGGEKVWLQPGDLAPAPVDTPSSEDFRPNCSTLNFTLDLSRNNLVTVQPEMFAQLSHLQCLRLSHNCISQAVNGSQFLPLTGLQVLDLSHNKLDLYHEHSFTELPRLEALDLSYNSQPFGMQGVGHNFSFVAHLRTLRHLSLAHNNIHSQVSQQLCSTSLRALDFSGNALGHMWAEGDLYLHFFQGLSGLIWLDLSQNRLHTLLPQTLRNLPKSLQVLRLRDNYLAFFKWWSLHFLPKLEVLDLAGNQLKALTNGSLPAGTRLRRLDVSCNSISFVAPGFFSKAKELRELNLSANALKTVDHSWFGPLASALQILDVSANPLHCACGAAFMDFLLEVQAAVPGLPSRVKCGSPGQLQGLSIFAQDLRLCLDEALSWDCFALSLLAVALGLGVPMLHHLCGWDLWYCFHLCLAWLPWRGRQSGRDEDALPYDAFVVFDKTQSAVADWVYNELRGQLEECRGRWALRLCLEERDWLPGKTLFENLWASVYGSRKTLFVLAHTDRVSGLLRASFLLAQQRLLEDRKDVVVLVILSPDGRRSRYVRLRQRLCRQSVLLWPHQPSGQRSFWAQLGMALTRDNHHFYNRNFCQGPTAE
Briefly: TLR9 inhibition reporter assay (HEK-Blue cells, SEAP reporter, ODN2006 stimulation). Conditions: HEK-Blue cells overexpressing human TLR9, SEAP reporter, ODN2006 5 nM. A digest of the protocol: as §1

By IC50 is commonly meant the midpoint of a concentration-inhibition curve. A lower IC50 goes with greater potency in that assay. On to `CC(C)c1c(-c2cc(CO)c3nnnn3c2)[nH]c2ccc(C3CCN(CC4(C)COC4)CC3)cc12` [Example 781, (6-(3-isopropyl-5-(1-((3-methyloxetan-3-yl)methyl)piperidin-4-yl)-1H-indol-2-yl)tetrazolo[1,5-a]pyridin-8-yl)methanol], for which the IC50 against human TLR8 is under 100 nM; against human TLR7, under 100 nM; on human TLR9, 1000 to 50000 nM.

With `CC(C)c1c(-c2ccnc3[nH]ncc23)[nH]c2ccc(C3CCN(Cc4ccc(Oc5ncccn5)cc4)CC3)cc12` [Example 899, 4-(3-isopropyl-5-(1-(4-(pyrimidin-2-yloxy)benzyl)piperidin-4-yl)-1H-indol-2-yl)-1H-pyrazolo[3,4-b]pyridine], the IC50 against human TLR8 is under 100 nM; on human TLR7 it was under 100 nM; on human TLR9, 100 to 1000 nM.

Regarding `CCc1c(-c2ccnc3[nH]ncc23)[nH]c2ccc(C3CCN(Cc4cscn4)CC3)cc12` [Example 927, 4-((4-(3-ethyl-2-(1H-pyrazolo[3,4-b]pyridin-4-yl)-1H-indol-5-yl)piperidin-1-yl)methyl)thiazole], the results for the concentration for half-maximal inhibition (IC50) against human TLR8, against human TLR7 and against human TLR9 were under 100 nM, under 100 nM and 1000 to 50000 nM, respectively.

For the molecule `CNC(=O)CN1CCC(c2ccc3[nH]c(-c4cc(C)n5nccc5c4)c(C(C)C)c3c2)CC1` [Example 443, 2-(4-(3-isopropyl-2-(7-methylpyrazolo[1,5-a]pyridin-5-yl)-1H-indol-5-yl)piperidin-1-yl)-N-methylacetamide], the 50% inhibitory concentration (IC50) was under 100 nM on human TLR8, under 100 nM at human TLR7 and 1000 to 50000 nM on human TLR9.

Take `Cc1cc2[nH]c(-c3ccnc4[nH]ncc34)c(C(C)C)c2cc1C1CCNCC1` [Example 250, 4-(3-isopropyl-6-methyl-5-(piperidin-4-yl)-1H-indol-2-yl)-1H-pyrazolo[3,4-b]pyridine]: the half-inhibitory concentration (IC50) was under 100 nM at human TLR8, under 100 nM against human TLR7 and 100 to 1000 nM at human TLR9.

In the case of `CC(C)c1c(-c2ccnc3[nH]ncc23)[nH]c2ccc(C3CCNC(=O)C3)cc12` (stereo not drawn) [Example 248, 4-(3-Isopropyl-2-(1H-pyrazolo[3,4-b]pyridin-4-yl)-1H-indol-5-yl)piperidin-2-one], the IC50 against human TLR8 was under 100 nM; against human TLR7 it was 100 to 1000 nM; at human TLR9, over 50000 nM.

As to `Cc1cn2cc(-c3[nH]c4ccc(C5CCNCC5)cc4c3C(C)C)cc(C(F)(F)F)c2n1` [Example 137, 6-(3-isopropyl-5-(piperidin-4-yl)-1H-indol-2-yl)-2-methyl-8-(trifluoromethyl)imidazo[1,2-a]pyridine], the half-inhibitory concentration (IC50) at human TLR8 was 100 to 1000 nM; on human TLR7 it was under 100 nM; against human TLR9 it was 100 to 1000 nM.

In the case of `CC(C)c1c(-c2cn(C)c3ncccc23)[nH]c2ccc(C3CCN(CCC#N)CC3)cc12` [Example 959, 3-(4-(3-isopropyl-2-(1-methyl-1H-pyrrolo[2,3-b]pyridin-3-yl)-1H-indol-5-yl)piperidin-1-yl)propanenitrile], the values for the concentration for half-maximal inhibition (IC50) against human TLR8, on human TLR7 and against human TLR9 were under 100 nM, under 100 nM and over 50000 nM, respectively.

As for `Cc1cc(-c2[nH]c3ccc(C4CCN(Cc5ncn(C)n5)CC4)cc3c2C(C)C)cn2nncc12` [Example 881, 6-(3-isopropyl-5-(1-((1-methyl-1H-1,2,4-triazol-3-yl)methyl)piperidin-4-yl)-1H-indol-2-yl)-4-methyl-[1,2,3]triazolo[1,5-a]pyridine], the IC50 against human TLR8 was 100 to 1000 nM; against human TLR7, 1000 to 50000 nM; on human TLR9, 1000 to 50000 nM.

Regarding `CNCCN1CCC(c2ccc3[nH]c(-c4ccc5nc(C)cn5c4)c(C(C)C)c3c2)CC1` [Example 676, 2-(4-(3-isopropyl-2-(2-methylimidazo[1,2-a]pyridin-6-yl)-1H-indol-5-yl)piperidin-1-yl)-N-methylethan-1-amine], the IC50 was 100 to 1000 nM on human TLR8, under 100 nM against human TLR7 and 100 to 1000 nM against human TLR9.

Regarding `CNC(=O)CN1CCC(c2ccc3[nH]c(-c4cc(C)n5ccnc5c4)c(C(C)C)c3c2)CC1` [Example 355, 2-(4-(3-isopropyl-2-(5-methylimidazo[1,2-a]pyridin-7-yl)-1H-indol-5-yl)piperidin-1-yl)-N-methylacetamide], the IC50 against human TLR8, at human TLR7 and at human TLR9 was 100 to 1000 nM in each case.

For `CC(C)c1c(-c2ccnc3[nH]ncc23)[nH]c2ccc(C3CCN(Cc4cc(F)cnc4Cl)CC3)cc12` [Example 913, 4-(5-(1-((2-chloro-5-fluoropyridin-3-yl)methyl)piperidin-4-yl)-3-isopropyl-1H-indol-2-yl)-1H-pyrazolo[3,4-b]pyridine], the half-maximal inhibitory concentration (IC50) was 100 to 1000 nM on human TLR8, 100 to 1000 nM against human TLR7 and over 50000 nM at human TLR9.

Turning to `CNC(=O)CN1CCC(c2ccc3[nH]c(-c4cc(C)c5nccnc5c4)c(C(C)C)c3c2)CC1` [Example 394, 2-(4-(3-isopropyl-2-(8-methylquinoxalin-6-yl)-1H-indol-5-yl)piperidin-1-yl)-N-methylacetamide], the 50% inhibitory concentration (IC50) against human TLR8 was 100 to 1000 nM; against human TLR7, under 100 nM; against human TLR9, 1000 to 50000 nM.

The values above are taken from US11739098B2 (BRISTOL-MYERS SQUIBB COMPANY, priority 2017, dated 2023).
